Among the data in PubChem BioAssay (NCI) are GI50 and TGI values, retold here.

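Growth conditions: 96-well plates. Treatment: test compound, 48 hours, 5 concentrations. Analysis: linear interpolation between bracketing concentrations; unreached endpoints set to highest concentration. At the GI50, growth is halved. TGI: concentration producing complete growth inhibition.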

Among the test systems are CAKI-1 renal; SF-539 CNS; NCI-H522 lung; SK-MEL-2 melanoma; SNB-19 CNS; MDA-MB-435; NCI/ADR-RES ovarian; HT29 colon; SF-268 CNS; NCI-H226 lung.
Test in all cases: NCI-60 cell line screen, 48 h

With `Cc1c(COc2cc(OCc3cccc(C#N)c3)c(CN3C[C@H](O)C[C@@H]3C(=O)O)cc2Cl)cccc1-c1ccc2c(c1)OCCO2`, the GI50 is 14.5 µM in the test with CAKI-1 renal; 15.2 µM in the test with SF-539 CNS; 19.8 µM in the test with NCI-H522 lung; 18.8 µM in the test with SK-MEL-2 melanoma; 15.6 µM with SNB-19 CNS; 17 µM in the test with MDA-MB-435. Moreover, the GI50 was 47.5 µM with NCI/ADR-RES ovarian, 23.2 µM in the test on HT29 colon, 21.1 µM in the test on SF-268 CNS and 8.86 µM in the test with NCI-H226 lung. The TGI with CAKI-1 renal worked out at 27.6 µM; in the test with SF-539 CNS it was 29.2 µM; in the test with NCI-H522 lung, 42.5 µM; in the test on SK-MEL-2 melanoma, 41.3 µM; in the test with SNB-19 CNS, 29 µM; in the test on MDA-MB-435 it was 33.6 µM. For the same molecule, the TGI with NCI/ADR-RES ovarian is over 100 µM; with HT29 colon, 48.2 µM; in the test on SF-268 CNS, 42.6 µM; in the test on NCI-H226 lung, 31.9 µM.
Regarding `CC1(C)[C@@H](O[C@@H]2OC[C@@H](O[C@@H]3O[C@H](CO)[C@@H](O)[C@H](O)[C@H]3O[C@@H]3OC[C@@H](O)[C@H](O)[C@H]3O)[C@H](O)[C@H]2O[C@@H]2O[C@H](CO)[C@@H](O)[C@H](O)[C@H]2O)CC[C@]2(C)[C@H]3CC[C@]45OC[C@@]6(CC[C@](C)(C=O)C[C@H]64)[C@H](O)C[C@@]5(C)[C@]3(C)CC[C@@H]12`, the GI50 was 0.763 µM with CAKI-1 renal; 1.21 µM in the test with SF-539 CNS; 0.903 µM in the test on NCI-H522 lung; 0.886 µM with SK-MEL-2 melanoma; 0.872 µM with SNB-19 CNS; 0.851 µM in the test on MDA-MB-435. The GI50 is 1.24 µM with NCI/ADR-RES ovarian, 1.01 µM in the test with HT29 colon, 0.963 µM with SF-268 CNS and 0.985 µM in the test on NCI-H226 lung. The TGI with CAKI-1 renal was 1.45 µM; in the test with SF-539 CNS it was 3.35 µM; with NCI-H522 lung, 1.83 µM; in the test on SK-MEL-2 melanoma, 1.74 µM; with SNB-19 CNS it was 1.77 µM; in the test on MDA-MB-435, 1.6 µM. Besides, the TGI in the test with NCI/ADR-RES ovarian is 3.43 µM; with HT29 colon, 2.06 µM; in the test with SF-268 CNS it was 1.99 µM; in the test on NCI-H226 lung, 2.11 µM.
For the molecule `CCNC(=O)c1cc2c(-c3cc(C(C)(C)O)ccc3Oc3c(C)cc(F)cc3C)cn(C)c(=O)c2[nH]1`, the GI50 in the test with CAKI-1 renal was 0.875 µM; with SF-539 CNS, 1.92 µM; in the test on NCI-H522 lung, 1.76 µM; in the test on SK-MEL-2 melanoma, 2.92 µM; with SNB-19 CNS, 2.05 µM; in the test on MDA-MB-435, 1.41 µM. Moreover, the GI50 in the test with NCI/ADR-RES ovarian was 7.49 µM; with HT29 colon, 1.12 µM; with SF-268 CNS it was 3.58 µM; in the test on NCI-H226 lung it was 2.64 µM. Also, the TGI is 13.2 µM in the test on CAKI-1 renal; 13.2 µM in the test on SF-539 CNS; 14.2 µM in the test on NCI-H522 lung; 15 µM in the test on SK-MEL-2 melanoma; 14.2 µM with SNB-19 CNS; 14.3 µM in the test with MDA-MB-435. For the same molecule, the TGI came to 23.2 µM in the test on NCI/ADR-RES ovarian, 15 µM in the test with HT29 colon, 18.6 µM with SF-268 CNS and 14.9 µM in the test with NCI-H226 lung.
Consider `N#Cc1c(N)nc(N2CCOCC2)c(C#N)c1-c1cccnc1`, for which the GI50 with CAKI-1 renal was 32.6 µM; in the test with SF-539 CNS, over 100 µM; in the test with NCI-H522 lung it was 22.3 µM; in the test with SK-MEL-2 melanoma, over 100 µM; with SNB-19 CNS, 77.2 µM; with MDA-MB-435, over 100 µM. For the same molecule, the GI50 in the test on NCI/ADR-RES ovarian is 81.7 µM; with HT29 colon, over 100 µM; in the test with SF-268 CNS it was over 100 µM; with NCI-H226 lung, 81.8 µM. In addition, the TGI in the test with CAKI-1 renal was 95 µM; with SF-539 CNS, over 100 µM; in the test on NCI-H522 lung it was 81.7 µM; with SK-MEL-2 melanoma, over 100 µM; in the test on SNB-19 CNS it was over 100 µM; with MDA-MB-435 it was over 100 µM. For the same molecule, the TGI in the test on NCI/ADR-RES ovarian, in the test with HT29 colon, in the test on SF-268 CNS and in the test with NCI-H226 lung was over 100 µM in each case.
Consider `NC(=O)c1cc(-c2ccc(F)cc2)cc(-c2ccncc2)c1N`, for which the GI50 in the test on CAKI-1 renal was 13.7 µM; in the test on SF-539 CNS, over 25 µM; with NCI-H522 lung, over 25 µM; in the test on SK-MEL-2 melanoma, over 25 µM; in the test with SNB-19 CNS, 24.3 µM; with MDA-MB-435, over 25 µM. Besides, the GI50 in the test with NCI/ADR-RES ovarian is over 25 µM; with HT29 colon, over 25 µM; with SF-268 CNS, over 25 µM; in the test on NCI-H226 lung it was 19.9 µM. The TGI in the test with CAKI-1 renal, in the test on SF-539 CNS, with NCI-H522 lung, in the test with SK-MEL-2 melanoma, in the test on SNB-19 CNS and in the test on MDA-MB-435 was over 25 µM each time. The TGI in the test with NCI/ADR-RES ovarian, with HT29 colon, in the test on SF-268 CNS and in the test with NCI-H226 lung was over 25 µM in each case.
Consider `CC(=Nc1ccccc1)C1=C(O)C(Cc2ccccc2)NC1=O` (stereo not given), for which the GI50 was 0.0299 µM in the test with CAKI-1 renal; 0.0439 µM in the test with SF-539 CNS; 0.0216 µM with NCI-H522 lung; 0.0447 µM with SK-MEL-2 melanoma; 0.0765 µM in the test with SNB-19 CNS; 0.0196 µM in the test on MDA-MB-435. For the same molecule, the GI50 with NCI/ADR-RES ovarian is 0.03 µM; with HT29 colon, 0.0331 µM; in the test with SF-268 CNS, 0.0586 µM; in the test on NCI-H226 lung, 0.244 µM. Moreover, the TGI was over 76.4 µM in the test on CAKI-1 renal; 0.501 µM in the test with SF-539 CNS; 0.0645 µM with NCI-H522 lung; over 31.5 µM in the test on SK-MEL-2 melanoma; over 100 µM with SNB-19 CNS; 0.0528 µM in the test with MDA-MB-435. The TGI with NCI/ADR-RES ovarian was 0.117 µM; with HT29 colon it was 0.151 µM; in the test with SF-268 CNS, over 76.2 µM; in the test with NCI-H226 lung, over 100 µM.
As for `CC(=O)O[C@]1(C(C)=O)CC[C@H]2[C@@H]3C=C(C)C4=CC(=O)CC[C@]4(C)[C@H]3CC[C@@]21C`, the GI50 with CAKI-1 renal is over 100 µM; in the test with SF-539 CNS it was over 61.4 µM; in the test on NCI-H522 lung, 53.2 µM; in the test on SK-MEL-2 melanoma, over 100 µM; in the test with SNB-19 CNS it was over 82.9 µM; in the test on MDA-MB-435, over 100 µM. The GI50 in the test on NCI/ADR-RES ovarian was 46.9 µM; in the test on HT29 colon, over 100 µM; in the test with SF-268 CNS, over 92.8 µM; with NCI-H226 lung, over 83.7 µM. The TGI in the test with CAKI-1 renal, with SF-539 CNS, with NCI-H522 lung, with SK-MEL-2 melanoma, with SNB-19 CNS and in the test on MDA-MB-435 was over 100 µM each time. Moreover, the TGI in the test on NCI/ADR-RES ovarian, with HT29 colon, with SF-268 CNS and in the test on NCI-H226 lung was over 100 µM in each case.
